Test results from patent US4378366A, “2-[Trifluoroethylamine]oxazolines” (Science Union et Cie, priority 1978, dated 1983).

assay: solubility in dilute aqueous hydrochloric acid; assay type: physicochemical; conditions: dilute or N/10 aqueous hydrochloric acid; hydrochloride formed

SMILES | solubility in hydrochloric acid solution
CC(NC1=NCCO1)C(F)(F)F (racemic) [I, dl 2-(α-trifluoromethylethylamino)oxazoline] | soluble in the dilute aqueous solutions of hydrochloric acid
FC(F)(F)C(NC1=NCCO1)C1CC1 (racemic) [II, dl 2-[(1-trifluoromethyl 1-cyclopropyl)methylamino]oxazoline] | easily soluble in an aqueous solution of the just calculated amount of N/10 hydrochloric acid
CC(C)CC(NC1=NCCO1)C(F)(F)F (racemic) [III, dl 2-(1-trifluoromethyl 3-methylbutylamino)oxazoline] | soluble in dilute hydrochloric acid
FC(F)(F)C(F)(F)C(NC1=NCCO1)C1CCCCC1 (racemic) [X, dl 2-[(1-pentafluoroethyl 1-cyclohexyl)methylamino]oxazoline] | soluble in N/10 hydrochloric acid solutions
FC(F)(F)C(NC1=NCCO1)C1CCCCC1 (single isomer, unassigned) [IV, 2-[(1-trifluoromethyl 1-cyclohexyl)methylamino]oxazoline (dextrorotatory isomer)] | soluble in dilute hydrochloric acid
FC(F)(F)C(NC1=NCCCN1)C1CCCCC1 (single isomer, unassigned) [XI, 2-[(1-trifluoromethyl 1-cyclohexyl)methylamino]tetrahydropyrimidine (laevorotatory isomer)] | soluble in N/10 hydrochloric acid solutions
